Data: patent publication US4997818A, “Therapeutic method for selectively treating terminal deoxynucleotidyl transferase-positive neoplastic leukemias and lymphomas” (The University Hospital, priority 1989, dated 1991)

Assays:
[1] = tested on: fresh leukemia cell cultures; assay: Ex-vivo viability of fresh leukemia cells from patients (trypan blue); format: cell-based, human; details: 30 uM CF alone, two instances
From the text: Leukemic blast cells from bone marrow or peripheral blood were obtained from 12 patients; of these, six persons were diagnosed as afflicted with acute lymphatic leukemia; three persons were diagnosed as afflicted with acute myeloblastic leukemia; two persons were diagnosed as afflicted with blastic chronic myelogenous leukemia; and one person was diagnosed as having acute myelogenous leukemia, complicating multiple myeloma. These diagnoses were based upon standard clinical and laboratory criteria. In ten of these twelve patients, blast cells constituted more than 75% of the mononuclear cells. In the eleventh and twelfth patients, 32% and 42% of the mononuclear cells were blast cells.
The leukemic cells from each person were enriched on Ficoll-Hypaque medium; washed in phosphate-buffered saline without divalent cations; resuspended in RPMI-1640 medium containing 20% FCS; and then grown in RPMI-1640 media supplemented with 10% FCS. The TdT status of each cell sample was independently determined by conventional biochemical assay before culturing. […] The six TdT-positive cases all had acute lymphoblastic leukemia.
Experimentally, all twelve fresh leukemia cell cultures were continuously exposed ex-vivo to 250 uM of ddA and 30 uM of CF for 72 hours. Each was then individually evaluated for viability as determined by trytan blue staining. The empirical results are illustrated by FIG. 6. […]

[2] = molecular target: T1, terminal deoxynucleotidyl transferase (TdT) (Bos taurus, UniProt P06526); assay: TdT enzyme assay (3H-dGTP incorporation); format: biochemical, calf
T1 construct: purchased DuPont/NEN Products, Boston, Massachusetts; host or cells: calf thymus
Procedure: (§1) Initially, the effect of various ddNTPs on TdT and DNA polymerase alpha was evaluated. DNA polymerase alpha, purified from calf thymus according to Kornberg [DNA Replication, W.H. Freeman and Company, 1980, p 206]and Wahl et al. [Biochemistry 23:1895 (1984)] was purchased from Pharmacia, Inc. (Piscataway, N.J.). TdT, purified from calf thymus, was purchased from DuPont/NEN Products, Boston, Massachusetts). Enzyme assays were conducted at 37 C. under conditions established to be optimal for each assay. For DNA polymeraseα, 0.1 ml of reaction mixture contained: 0.05 M tris-HCl (pH 8.3); 4 mM dithiothreitol; 4 mM MgCl; 10 ug poly(dAT); 0.05 mM ^3 H-dATP; 0.05 mM dTTP; and 0.05 units of enzyme. For TdT assays, 0.1 ml of standard reaction mixture contained: 0.05 M tris-HCl (pH 8.3); 2 mM dithiothreitol; 0.6 mM MnCl; 20 ug oligo(dA) 50; 0.1 mM ^3 H-dGTP; and 0.5 units of TdT.
For these studies, ddNTPs were dissolved in deionized distilled water and added to the respective reaction mixtures at time zero to give the effective final concentrations. The degree of reaction or inhibition was calculated from simultaneous control reactions. The mode of inhibition and inhibition constants were determined using Linweaver-Burke and Dixon plots. Each of the respective reactions was stopped using 0.5 ml of cold (4 C) 0.1 M sodium pyrophosphate containing 1 mg/ml yeast RNA (hereinafter"NaPP") and precipitated with 0.5 ml of cold 25% trichloroacetic acid (hereinafter "TCA"). The precipitates centrifuged at 13,000×gravity in a microfuge for one minute; resolubilized in 0.2 ml of 0.3M NaOH; and then reprecipitated with NaPP and TCA. Following a second 0.3 M NaOH resolubilization, 10 ml of scintiverse II (Fisher Scientific Company, Fairlawn, N.J.) was added to each sample for counting in a Beckman LS3700 liquid scintillation counter.
(§2) It should be noted also that for certain TdT assays, a variety of different initiators were used in place of oligo (dA) 50. These included: activated DNA; 5'-^32 T-GTCCGTCTCTGCCTC-3' (15 MER synthesized on an automated synthesizer using standard phosphoramidite chemistry having a ^32 P-end labeled by a standard Maxam-Gilbert reaction); YEP-FG-2-plasmid DNA; oligo (dC) 18; oligo (dT) 18; and various ^3 H-substrates such as dCTP, dATP, and dTTP in place of ^3 H-dGTP. Reactions utilizing the 15 MER initiator contained either 5 mM MgCl2 or 1 mM CoCl2 in place of MnCl2.

[3] = tested on: DNA polymerase alpha; assay: DNA polymerase alpha enzyme assay; format: biochemical, calf
Procedure: as §1
For these studies, ddNTPs were dissolved in deionized distilled water and added to the respective reaction mixtures at time zero to give the effective final concentrations. The degree of reaction or inhibition was calculated from simultaneous control reactions. The mode of inhibition and inhibition constants were determined using Linweaver-Burke and Dixon plots. […]

[4] = molecular target: T1, terminal deoxynucleotidyl transferase (TdT); assay: TdT-catalyzed polymerization on 32P-labelled 15 MER initiator, autoradiograph (chain termination); format: biochemical, calf; details: ddATP as substrate, MgCl2 or CoCl2
From the text: as §2
It should be noted that the mechanism of inhibition by any of the ddNTPs upon TdT catalysis is by chain termination. […] A radiolabelled oligomer (^32 P-GTCCGTCTCTGCCTC-3') shown in Lane 1 was used as an initiator for TdT-catalyzed polymerization using: dATP (Lanes 2 and 4); or ddATP (Lanes 3 and 5 ) as substrates. Lanes 2 and 3 represent the reaction products generated in the presence of MgCl2 while Lanes 4 and 5 represent the reaction products generated in the presence of CoCl2 respectively. Each reaction product was electrophoresed on a 20% polyacrylamide gel under denaturing conditions (2.5 hours at 35 watts, 2800 volts). […] Thus, the effectiveness of chain termination by ddATP is clearly established.

[5] = tested on: L1210; assay: Growth inhibition, viable cell count by trypan blue exclusion; format: cell-based; details: Mus musculus; L1210, TdT negative, 48 hour continuous exposure
Procedure: (§3) Each cell line was utilized in exponential growth phase. For test purposes, cells were seeded at […] cells/ml in T25 flasks containing 4 ml of culture medium. Cell counts were made using a hemocytometer. Cell viability was determined using the tryptan blue dye exclusion method. The degree of growth inhibition was calculated by comparison with untreated controls.
(§4) Initially, the effect of a 48 hour continuous exposure to 250 uM and 500 uM of ddA upon four TdT-positive and three TdT-negative cell lines was evaluated.
(§5) The growth inhibition data of Table V is defined as the ratio of viable cells in the ddA exposed cultures in comparison to control cultures. Each determination reflects the mean of triplicate flasks. It is noted that at 250 uM of ddA, there was marked growth inhibition (30-80%) in all four TdT-positive cell lines whereas there was very little effect among the TdT-negative cells (0-15% growth inhibition). At 500 uM of ddA, the cytotoxicity in the TdT-positive lines was further increased (92-99% growth inhibition). At this concentration level, 2 of the 3 TdT-negative lines also show measureable growth inhibition (40-50%).

[6] = tested on: TdT-positive cell lines; assay: Growth inhibition, summary over TdT-positive cell lines; format: cell-based; details: 48 hour
Procedure: as §3, §4, §5
(§6) As a result, another series of experiments was conducted in which the non-selective purinogenic cytotoxicity was reduced. […]

[7] = tested on: 298-26; assay: Growth inhibition, viable cell count by trypan blue exclusion; format: cell-based, Murine; details: Mus musculus; 298-26, TdT positive, 48 hour continuous exposure
Procedure: as §3, §4, §5, §6

[8] = tested on: 8392; assay: as above; format: cell-based; details: Homo sapiens; 8392, TdT negative, 48 hour continuous exposure
Procedure: as §3, §4, §5
(§7) As a result, another series of experiments was conducted in which the non-selective purinogenic cytotoxicity was reduced. In this experimental series, a variety of different cell lines were pre-incubated for 30 minutes with the adenosine deaminase inhibitor, coformycin (CF). This CF exposure was then followed by a continuous 48 hour exposure to 250 uM ddA with suitable controls. Growth inhibition was defined as the ratio of viable cells in the CF/ddA exposed cell cultures in comparison to control cultures. Each determination reflects the mean of quadruplicate flasks. The results are provided by FIG. 3 and Table VI respectively.

[9] = tested on: MOLT-4; assay: as above; format: cell-based; details: Homo sapiens; MOLT-4, TdT positive, 48 hour continuous exposure
Procedure: as §3, §4, §5, §7

[10] = tested on: NALM-6; assay: as above; format: cell-based; details: Homo sapiens; NALM-6, TdT positive, 48 hour continuous exposure
Procedure: as §3, §4, §5, §7

[11] = tested on: HPB-ALL; assay: as above; format: cell-based; details: Homo sapiens, HPBALL, TdT positive, 48 hour continuous exposure
Procedure: as §3, §4, §5, §7

[12] = tested on: ML3; assay: as above; format: cell-based; details: Homo sapiens; ML3, TdT negative, 48 hour continuous exposure
Procedure: as §3, §4, §5, §7

[13] = tested on: TdT-negative cell lines; assay: Growth inhibition, summary over TdT-negative cell lines; format: cell-based; details: 48 hour
Procedure: as §3, §4, §5

T1 sequence (P06526 whole entry): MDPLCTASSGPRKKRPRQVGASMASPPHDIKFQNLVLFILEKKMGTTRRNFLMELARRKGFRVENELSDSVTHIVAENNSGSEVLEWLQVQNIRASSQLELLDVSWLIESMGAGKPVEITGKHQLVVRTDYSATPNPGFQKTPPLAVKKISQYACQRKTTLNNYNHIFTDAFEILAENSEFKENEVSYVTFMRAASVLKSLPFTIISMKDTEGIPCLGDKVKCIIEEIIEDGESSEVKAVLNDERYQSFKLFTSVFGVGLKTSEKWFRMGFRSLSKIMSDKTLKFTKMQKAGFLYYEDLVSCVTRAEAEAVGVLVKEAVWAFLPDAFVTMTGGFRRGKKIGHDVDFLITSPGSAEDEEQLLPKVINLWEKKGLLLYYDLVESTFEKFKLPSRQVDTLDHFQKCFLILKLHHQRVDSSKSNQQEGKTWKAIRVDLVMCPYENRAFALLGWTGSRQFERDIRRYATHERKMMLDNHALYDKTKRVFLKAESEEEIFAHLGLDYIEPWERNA

OC[C@H]1O[C@@H](n2cnc3c2N=CNC[C@H]3O)[C@H](O)[C@@H]1O [CF, coformycin]
effect on cell viability [1]: no effect

Cc1cn([C@H]2CC[C@@H](COP(=O)(O)OP(=O)(O)OP(=O)(O)O)O2)c(=O)[nH]c1=O [ddTTP, 2',3'-dideoxythymidine triphosphate]
IC50 [2]: 47.2 µM

Cc1cn([C@H]2C[C@H](N=[N+]=[N-])[C@@H](CO[P@](=O)(O)O[P@](=O)(O)OP(=O)(O)O)O2)c(=O)[nH]c1=O [AZTTP, 3'-azido thymidine triphosphate, reference compound]
IC50 [2]: 133 µM

Nc1ncnc2c1ncn2[C@H]1CC[C@@H](COP(=O)(O)OP(=O)(O)OP(=O)(O)O)O1 [ddATP, 2',3'-dideoxyadenosine triphosphate]
effect on DNA polymerase alpha enzyme activity (FIG. 1) [3]: does not recognize | chain termination: residues added by TdT to 15 MER initiator (FIG. 2) [4]: only one residue is added | IC50 [2]: 9 µM | effect on TdT polymerization reaction (FIG. 1) ([2]; micromolar concentrations of ddATP): dramatically inhibits

Nc1ncnc2c1ncn2[C@H]1CC[C@@H](CO)O1 [ddA, dideoxyadenosine]
inhibition at 250 µM [5]: 15% | inhibition at 500 µM [5]: 50% | inhibition at 250 µM ([6]; 250 uM ddA, read-out: growth inhibition, range over all four TdT-positive cell lines): 30 to 80% | inhibition at 500 µM ([6]; 500 uM ddA, read-out: growth inhibition, range over TdT-positive lines): 92 to 99% | inhibition at 250 µM [7]: 80% | inhibition at 500 µM [7]: 99% | inhibition at 250 µM [8]: 0% | inhibition at 500 µM [8]: 0% | inhibition at 250 µM [9]: 60% | inhibition at 500 µM [9]: 92% | inhibition at 250 µM [10]: 30% | inhibition at 500 µM [10]: 95% | inhibition at 250 µM [11]: 40% | inhibition at 500 µM [11]: 99% | inhibition at 250 µM [12]: 0% | inhibition at 500 µM [12]: 40% | inhibition at 250 µM ([13]; 250 uM ddA, read-out: growth inhibition, range over TdT-negative cells): 0 to 15% | inhibition at 500 µM ([13]; 500 uM ddA, read-out: growth inhibition, 2 of the 3 TdT-negative lines): 40 to 50%

Nc1ccn([C@H]2CC[C@@H](COP(=O)(O)OP(=O)(O)OP(=O)(O)O)O2)c(=O)n1 [ddCTP, dideoxycytosine triphosphate]
IC50 [2]: 24.8 µM

Nc1nc2c(ncn2[C@H]2CC[C@@H](COP(=O)(O)OP(=O)(O)OP(=O)(O)O)O2)c(=O)[nH]1 [ddGTP, dideoxyguanosine triphosphate]
IC50 [2]: 18 µM

O=c1[nH]cnc2c1ncn2[C@H]1CC[C@@H](COP(=O)(O)OP(=O)(O)OP(=O)(O)O)O1 [ddITP, dideoxyinosine triphosphate]
IC50 [2]: 20 µM
